From US9995734B2, “Human T cell line assay for evaluating the immunologic identity of glatiramer acetate preparations” (Mylan Inc., priority 2013, dated 2018)
Where “and” joins values, the source holds several entries; their conditions need not be identical. Equal entries are not always repeated.

Columns and labels:
Assay type in all cases: cell-based, human
[1] = tested on: Donor 3 GMA T-Cell Lines; experiment: ATP proliferation assay (CellTiter Glo), Donor 3 GMA T-cell lines, incl. reactivity to non-canonical GA peptides; details: for proliferation response to non-canonical GA peptides: 0, 1, 3, 10 μg/mL; for Non-Canonical Peptide Reactivity: at least one proliferation value >=2 times no antigen control
[2] = tested on: Donor 3 COP T-Cell Lines; experiment: ATP proliferation assay (CellTiter Glo), Donor 3 COP T-cell lines, incl. reactivity to non-canonical GA peptides; details: for Non-Canonical Peptide Reactivity: at least one proliferation value >=2 times no antigen control
[3] = tested on: Donor 4 COP T-Cell Lines; experiment: ATP proliferation assay (CellTiter Glo), Donor 4 COP T-cell lines, incl. reactivity to non-canonical GA peptides; details: for Non-Canonical Peptide Non-Reactivity: proliferation <2 times no antigen control; for Proliferation (luminescent ATP assay), Mean: T-cell line 205-1F4, Day 71, autologous B-LCL

Substance: poly (Glu-Lys; 1:4) [GL 14]
- proliferation response to non-canonical GA peptides ([1]; 165-B5G and 165-E7G, Day 55): responded well
- Non-Canonical Peptide Reactivity ([1]; 165-B5G): GL 14
- Non-Canonical Peptide Reactivity ([1]; 165-C5G): GL 14
- Non-Canonical Peptide Reactivity ([1]; 165-E7G): GL 14
- Non-Canonical Peptide Reactivity ([1]; 165-E9G): GL 14
- Non-Canonical Peptide Reactivity ([1]; 165-F5G): GL 14
- proliferation response to non-canonical GA peptides ([1]; 165-F10G, 165-C5G, 165-H11G, 165-C7C, 165-E9G, 165-F5G, minimum 55 days in culture): responded well
- Non-Canonical Peptide Reactivity ([1]; 165-F10G): GL 14
- Non-Canonical Peptide Reactivity ([1]; 165-H11G): GL 14
- Reactive T-Cell Line ([1]; Donor 3 GMA lines, at least a 50% increase in proliferation relative to a control after stimulation with the non-canonical GA peptide): 165-B5G (Donor 3) and 165-C5G (Donor 3) and 165-E7G (Donor 3) and 165-E9G (Donor 3) and 165-F5G (Donor 3) and 165-F10G (Donor 3) and 165-H11G (Donor 3)
- Proliferation (luminescent ATP assay), Mean ([1]; T-cell line 165-B5G, 1.25 μg/mL antigen, Day 55 of culturing, No Antigen Value 846): 3912 RLU
- Proliferation (luminescent ATP assay), Mean ([1]; T-cell line 165-B5G, 2.5 μg/mL antigen, Day 55 of culturing, No Antigen Value 846): 3245 RLU
- Proliferation (luminescent ATP assay), Mean ([1]; T-cell line 165-B5G, 5 μg/mL antigen, Day 55 of culturing, No Antigen Value 846): 501 RLU
- Proliferation (luminescent ATP assay), Mean ([1]; T-cell line 165-B5G, 10 μg/mL antigen, Day 55 of culturing, No Antigen Value 846): 45 RLU
- Proliferation (luminescent ATP assay), Mean ([1]; T-cell line 165-C5G, 1.25 μg/mL antigen, autologous B-LCL): 1412 RLU
- Proliferation (luminescent ATP assay), Mean ([1]; T-cell line 165-C5G, 2.5 μg/mL antigen, autologous B-LCL): 5418 RLU
- Proliferation (luminescent ATP assay), Mean ([1]; T-cell line 165-C5G, 5 μg/mL antigen, autologous B-LCL): 703 RLU
- Proliferation (luminescent ATP assay), Mean ([1]; T-cell line 165-C5G, 10 μg/mL antigen, autologous B-LCL): 43 RLU
- Proliferation (luminescent ATP assay), Mean ([1]; T-cell line 165-E7G, 1.25 μg/mL antigen, autologous B-LCL, Day 55): 10001 RLU
- Proliferation (luminescent ATP assay), Mean ([1]; T-cell line 165-E7G, 2.5 μg/mL antigen, autologous B-LCL, Day 55): 14902 RLU
- Proliferation (luminescent ATP assay), Mean ([1]; T-cell line 165-E7G, 5 μg/mL antigen, autologous B-LCL, Day 55): 4087 RLU
- Proliferation (luminescent ATP assay), Mean ([1]; T-cell line 165-E7G, 10 μg/mL antigen, autologous B-LCL, Day 55): 58 RLU
- Proliferation (luminescent ATP assay), Mean ([1]; T-cell line 165-E9G, 1.25 μg/mL antigen, autologous B-LCL): 145 RLU
- Proliferation (luminescent ATP assay), Mean ([1]; T-cell line 165-E9G, 2.5 μg/mL antigen, autologous B-LCL): 801 RLU
- Proliferation (luminescent ATP assay), Mean ([1]; T-cell line 165-E9G, 5 μg/mL antigen, autologous B-LCL): 268 RLU
- Proliferation (luminescent ATP assay), Mean ([1]; T-cell line 165-E9G, 10 μg/mL antigen, autologous B-LCL): 38 RLU
- Proliferation (luminescent ATP assay), Mean ([1]; T-cell line 165-F5G, 1.25 μg/mL antigen, autologous B-LCL): 559 RLU
- Proliferation (luminescent ATP assay), Mean ([1]; T-cell line 165-F5G, 2.5 μg/mL antigen, autologous B-LCL): 2779 RLU
- Proliferation (luminescent ATP assay), Mean ([1]; T-cell line 165-F5G, 5 μg/mL antigen, autologous B-LCL): 89 RLU
- Proliferation (luminescent ATP assay), Mean ([1]; T-cell line 165-F5G, 10 μg/mL antigen, autologous B-LCL): 38 RLU
- Proliferation (luminescent ATP assay), Mean ([1]; T-cell line 165-F10G, 1.25 μg/mL antigen, autologous B-LCL): 5153 RLU
- Proliferation (luminescent ATP assay), Mean ([1]; T-cell line 165-F10G, 2.5 μg/mL antigen, autologous B-LCL): 19489 RLU
- Proliferation (luminescent ATP assay), Mean ([1]; T-cell line 165-F10G, 5 μg/mL antigen, autologous B-LCL): 1990 RLU
- Proliferation (luminescent ATP assay), Mean ([1]; T-cell line 165-F10G, 10 μg/mL antigen, autologous B-LCL): 53 RLU
- Proliferation (luminescent ATP assay), Mean ([1]; T-cell line 165-H11G, 1.25 μg/mL antigen, autologous B-LCL): 144 RLU
- Proliferation (luminescent ATP assay), Mean ([1]; T-cell line 165-H11G, 2.5 μg/mL antigen, autologous B-LCL): 4416 RLU
- Proliferation (luminescent ATP assay), Mean ([1]; T-cell line 165-H11G, 5 μg/mL antigen, autologous B-LCL): 118 RLU
- Proliferation (luminescent ATP assay), Mean ([1]; T-cell line 165-H11G, 10 μg/mL antigen, autologous B-LCL): 40 RLU
- Non-Canonical Peptide Reactivity ([2]; 165-C4C): GL 14
- Non-Canonical Peptide Reactivity ([2]; 165-C7C): GL 14
- proliferation response to non-canonical GA peptides ([2]; 165-F3C (Day 77) and 165-C4C (Day 66), 0, 1, 3, 10 μg/mL): responded well
- Non-Canonical Peptide Reactivity ([2]; 165-F3C): GL 14
- proliferation response to non-canonical GA peptides ([2]; 165-F6C, Day 76, 0, 1.25, 2.5, 5, 10 μg/mL): reacted
- response relative to the no antigen control ([2]; 165-F6C, Day 76, dose of 2.5 μg/mL antigen): 4.4 fold
- Non-Canonical Peptide Reactivity ([2]; 165-F6C): GL 14
- Reactive T-Cell Line ([2]; Donor 3 COP lines, at least a 50% increase in proliferation relative to a control after stimulation with the non-canonical GA peptide): 165-C4C (Donor 3) and 165-C7C (Donor 3) and 165-F6C (Donor 3) and 165-F3C (Donor 3)
- Proliferation (luminescent ATP assay), Mean ([2]; T-cell line 165-C4C, 1 μg/mL antigen, Day 66 of culture, 0 μg/mL 1881): 2833
- Proliferation (luminescent ATP assay), Mean ([2]; T-cell line 165-C4C, 3 μg/mL antigen, Day 66 of culture, 0 μg/mL 1881): 4920
- Proliferation (luminescent ATP assay), Mean ([2]; T-cell line 165-C4C, 10 μg/mL antigen, Day 66 of culture, 0 μg/mL 1881): 49
- Proliferation (luminescent ATP assay), Mean ([2]; T-cell line 165-C7C, 1.25 μg/mL antigen, autologous B-LCL): 274 RLU
- Proliferation (luminescent ATP assay), Mean ([2]; T-cell line 165-C7C, 2.5 μg/mL antigen, autologous B-LCL): 1797 RLU
- Proliferation (luminescent ATP assay), Mean ([2]; T-cell line 165-C7C, 5 μg/mL antigen, autologous B-LCL): 537 RLU
- Proliferation (luminescent ATP assay), Mean ([2]; T-cell line 165-C7C, 10 μg/mL antigen, autologous B-LCL): 39 RLU
- Proliferation (luminescent ATP assay), Mean ([2]; T-cell line 165-F3C, 1 μg/mL antigen, Day 77 of culture, 0 μg/mL 1563): 2542
- Proliferation (luminescent ATP assay), Mean ([2]; T-cell line 165-F3C, 3 μg/mL antigen, Day 77 of culture, 0 μg/mL 1563): 7091
- Proliferation (luminescent ATP assay), Mean ([2]; T-cell line 165-F3C, 10 μg/mL antigen, Day 77 of culture, 0 μg/mL 1563): 65
- Proliferation (luminescent ATP assay), Mean ([2]; T-cell line 165-F6C, 1.25 μg/mL antigen, Day 76 of culture, No Antigen value 517): 699
- Proliferation (luminescent ATP assay), Mean ([2]; T-cell line 165-F6C, 2.5 μg/mL antigen, Day 76 of culture, No Antigen value 517): 2,267
- Proliferation (luminescent ATP assay), Mean ([2]; T-cell line 165-F6C, 5 μg/mL antigen, Day 76 of culture, No Antigen value 517): 114
- Proliferation (luminescent ATP assay), Mean ([2]; T-cell line 165-F6C, 10 μg/mL antigen, Day 76 of culture, No Antigen value 517): 33
- Non-Canonical Peptide Non-Reactivity ([3]; 205-1F4): GL 14
- reactivity to non-canonical GA peptide ([3]; 205-1H3, at 1 μg/mL of antigen): showed reactivity
- Non-Canonical Peptide Reactivity ([3]; 205-1H3, at least one proliferation value >=2 times no antigen control): GL 14
- Non-Canonical Peptide Non-Reactivity ([3]; 205-1H11): GL 14
- Reactive T-Cell Line ([3]; Donor 4 COP lines, at least a 50% increase in proliferation relative to a control after stimulation with the non-canonical GA peptide): 205-1H3 (Donor 4)
- Nonreactive T-Cell Line ([3]; Donor 4 COP lines, stimulation with the non-canonical GA peptide): 205-1F4 (Donor 4) and 205-1H11 (Donor 4)
- Proliferation (luminescent ATP assay), Mean ([3]; 1 μg/mL antigen): 12630
- Proliferation (luminescent ATP assay), Mean ([3]; 3 μg/mL antigen): 1423
- Proliferation (luminescent ATP assay), Mean ([3]; 10 μg/mL antigen): 158
- Reactivity (proliferation), Mean ([3]; T-cell line 205-1H3, 1 μg/mL antigen, 0 μg/mL 4121.0): 15619.0
- Reactivity (proliferation), Mean ([3]; T-cell line 205-1H3, 3 μg/mL antigen, 0 μg/mL 4121.0): 1053.3
- Reactivity (proliferation), Mean ([3]; T-cell line 205-1H3, 10 μg/mL antigen, 0 μg/mL 4121.0): 61.0
- Reactivity (proliferation), Mean ([3]; T-cell line 205-1H11, 1 μg/mL antigen, 0 μg/mL 6941): 5954 RLU
- Reactivity (proliferation), Mean ([3]; T-cell line 205-1H11, 10 μg/mL antigen, 0 μg/mL 6941): 102 RLU
- Reactivity (proliferation), Mean ([3]; T-cell line 205-1H11, 30 μg/mL antigen, 0 μg/mL 6941): 74 RLU
